In ChEMBL document CHEMBL4304773, “Nitroimidazole-containing compounds and their antibacterial and antitubercular activities” (2019):
Converted amounts (≈) assume the structure as drawn. One block for each compound: values may come before it.

What was measured:
[1] = tested on: Helicobacter pylori; experiment: Antibacterial activity against Helicobacter pylori clinical isolate assessed as zone of inhibition at 8 ug/disc; type: functional; conditions: read-out: IZ
[2] = tested on: Helicobacter pylori; experiment: Antibacterial activity against drug-sensitive Helicobacter pylori assessed as zone of inhibition at 8 ug/disc; type: functional; conditions: read-out: IZ
[3] = tested on: Staphylococcus aureus; experiment: Antibacterial activity against Staphylococcus aureus ATCC 6538 after 18 hrs by two fold serial dilution; type: functional; conditions: ATCC 6538, 18 h
[4] = tested on: Bacillus subtilis; experiment: Antibacterial activity against Bacillus subtilis PTCC 1023 after 18 hrs by two fold serial dilution; type: functional; conditions: PTCC 1023, 18 h
[5] = tested on: Klebsiella pneumoniae; experiment: Antibacterial activity against Klebsiella pneumoniae ATCC 10031 after 18 hrs by two fold serial dilution; type: functional; conditions: ATCC 10031, 18 h
[6] = tested on: Escherichia coli; experiment: Antibacterial activity against Escherichia coli ATCC 8739 after 18 hrs by two fold serial dilution; type: functional; conditions: ATCC 8739, 18 h
[7] = tested on: Staphylococcus epidermidis; experiment: Antibacterial activity against Staphylococcus epidermidis ATCC 12228 after 18 hrs by two fold serial dilution; type: functional; conditions: ATCC 12228, 18 h
[8] = tested on: Enterococcus faecalis; experiment: Antibacterial activity against Enterococcus faecalis; type: functional
[9] = tested on: Staphylococcus epidermidis; experiment: Antibacterial activity against Staphylococcus epidermidis; type: functional
[10] = tested on: Enterococcus faecalis; experiment: Potency index, ratio of chloramphenicol MIC to test compound MIC for Enterococcus faecalis; type: functional
[11] = tested on: Staphylococcus epidermidis; experiment: Potency index, ratio of chloramphenicol MIC to test compound MIC for Staphylococcus epidermidis; type: functional
[12] = tested on: Staphylococcus aureus; experiment: Antibacterial activity against Staphylococcus aureus; type: functional
[13] = tested on: Streptococcus pyogenes; experiment: Antibacterial activity against Streptococcus pyogenes; type: functional
[14] = tested on: Escherichia coli; experiment: Antibacterial activity against Escherichia coli; type: functional
[15] = tested on: Pseudomonas aeruginosa; experiment: Antibacterial activity against Pseudomonas aeruginosa; type: functional
[16] = tested on: Candida albicans; experiment: Antifungal activity against Candida albicans; type: functional
[17] = tested on: Proteus vulgaris; experiment: Antibacterial activity against Proteus vulgaris; type: functional
[18] = tested on: Klebsiella aerogenes; experiment: Antibacterial activity against Klebsiella aerogenes; type: functional
[19] = tested on: Salmonella typhimurium; experiment: Antibacterial activity against Salmonella typhimurium; type: functional, Salmonella enterica subsp. enterica serovar Typhimurium; conditions: Salmonella enterica
[20] = tested on: Bacillus subtilis; experiment: Antibacterial activity against Bacillus subtilis; type: functional
[21] = tested on: Proteus; experiment: Antibacterial activity against Proteus; type: functional
[22] = tested on: Enterococcus faecalis; experiment: Antibacterial activity against Enterococcus faecalis after 24 hrs; type: functional
[23] = tested on: Staphylococcus aureus; experiment: Antibacterial activity against Staphylococcus aureus ATCC 25923 after 24 hrs; type: functional; conditions: ATCC 25923, 24 h
[24] = tested on: Staphylococcus aureus; experiment: Antibacterial activity against Staphylococcus aureus ATCC 29213 after 24 hrs; type: functional; conditions: ATCC 29213, 24 h
[25] = tested on: Staphylococcus aureus; experiment: Antibacterial activity against methicillin-resistant Staphylococcus aureus after 24 hrs; type: functional
[26] = tested on: Pseudomonas aeruginosa; experiment: Antibacterial activity against Pseudomonas aeruginosa after 24 hrs; type: functional
[27] = tested on: Pseudomonas aeruginosa; experiment: Antibacterial activity against Pseudomonas aeruginosa ATCC 27853 after 24 hrs; type: functional; conditions: ATCC 27853, 24 h
[28] = tested on: Escherichia coli; experiment: Antibacterial activity against Escherichia coli ATCC 25922 after 24 hrs; type: functional; conditions: ATCC 25922, 24 h
[29] = tested on: Klebsiella pneumoniae; experiment: Antibacterial activity against Klebsiella pneumoniae after 24 hrs; type: functional
[30] = tested on: Escherichia coli; experiment: Antibacterial activity against drug-resistant Escherichia coli after 24 hrs; type: functional
[31] = tested on: Escherichia coli; experiment: Potency index, ratio of norfloxacin MIC to test compound MIC for drug-resistant Escherichia coli; type: functional

Compound: Cn1c([N+](=O)[O-])cnc1-c1nnc(S)s1
zone of inhibition at 8 µg/disc [1]: 20.9 to 50 mm | zone of inhibition at 8 µg/disc [2]: 20.9 to 50 mm

Compound: Cn1cnc([N+](=O)[O-])c1S(=O)(=O)c1nnc(-c2ncc([N+](=O)[O-])n2C)s1
MIC [3]: 2 to 64 µg/mL (≈ 5 to 160 µM) | MIC [4]: 2 to 64 µg/mL (≈ 5 to 160 µM) | MIC [5]: 2 to 64 µg/mL (≈ 5 to 160 µM) | MIC [6]: 2 to 64 µg/mL (≈ 5 to 160 µM) | MIC [7]: 2 to 64 µg/mL (≈ 5 to 160 µM)

Compound: Cn1c([N+](=O)[O-])cnc1-c1nnc(Cl)s1
zone of inhibition at 8 µg/disc [1]: 20.9 to 50 mm | zone of inhibition at 8 µg/disc [2]: 20.9 to 50 mm

Compound: Cc1nc([N+](=O)[O-])cn1Cc1nn(CNc2ccc(Br)cc2)c(=S)o1
MIC [12]: 184 to 2890 µM | MIC [13]: 184 to 2890 µM (≈ 78.2 to 1230 µg/mL)

Compound: CC(=O)N(Cc1ccc(Cl)cc1Cl)c1ccc(S(=O)(=O)NCCCn2c([N+](=O)[O-])cnc2C)cc1
MIC [12]: 16 to 64 µg/mL | MIC [20]: 16 to 64 µg/mL (≈ 29.6 to 118 µM) | MIC [14]: 16 to 64 µg/mL (≈ 29.6 to 118 µM) | MIC [15]: 16 to 64 µg/mL (≈ 29.6 to 118 µM) | MIC [19]: 16 to 64 µg/mL (≈ 29.6 to 118 µM) | MIC [21]: 16 to 64 µg/mL (≈ 29.6 to 118 µM)

Compound: COc1cc(/C=C(\C#N)n2cc([N+](=O)[O-])nc2C)c2c(c1OCc1ccccc1F)CN1CCc3cc4c(cc3C1C2)OCO4 (centres undefined)
MIC [22]: 3 to 1020 µM (≈ 1.83 to 622 µg/mL) | MIC [23]: 3 to 1020 µM (≈ 1.83 to 622 µg/mL) | MIC [24]: 3 to 1020 µM (≈ 1.83 to 622 µg/mL) | MIC [25]: 3 to 1020 µM (≈ 1.83 to 622 µg/mL) | MIC [26]: 3 to 1020 µM (≈ 1.83 to 622 µg/mL) | MIC [27]: 3 to 1020 µM (≈ 1.83 to 622 µg/mL) | MIC [28]: 3 to 1020 µM (≈ 1.83 to 622 µg/mL) | MIC [29]: 3 to 1020 µM (≈ 1.83 to 622 µg/mL) | MIC [30]: 3 µM (≈ 1.83 µg/mL) | Ratio [31]: 33

Further lines, with some results ahead:

MIC [8]: 62.5 µg/mL (≈ 174 µM) | MIC [9]: 62.5 µg/mL (≈ 174 µM)
Compound: Cc1ncc([N+](=O)[O-])n1CCN1C(=O)S/C(=C\c2ccccc2)C1=O
Ratio [10]: 8 | Ratio [11]: 2

MIC [12]: 31.2 to 500 µg/mL | MIC [14]: 31.2 to 500 µg/mL (≈ 85.8 to 1370 µM) | MIC [15]: 31.2 to 500 µg/mL (≈ 85.8 to 1370 µM) | MIC [16]: 31.2 to 500 µg/mL (≈ 85.8 to 1370 µM) | MIC [17]: 31.2 to 500 µg/mL (≈ 85.8 to 1370 µM) | MIC [18]: 31.2 to 500 µg/mL (≈ 85.8 to 1370 µM) | MIC [8]: 31.2 to 500 µg/mL (≈ 85.8 to 1370 µM) | MIC [9]: 31.2 to 500 µg/mL (≈ 85.8 to 1370 µM) | MIC [19]: 31.2 to 500 µg/mL (≈ 85.8 to 1370 µM)
Compound: Cc1ncc([N+](=O)[O-])n1CCN1C(=O)S/C(=C\c2cccs2)C1=O

MIC [12]: 31.2 to 500 µg/mL | MIC [14]: 31.2 to 500 µg/mL (≈ 83.9 to 1340 µM) | MIC [15]: 31.2 to 500 µg/mL (≈ 83.9 to 1340 µM) | MIC [16]: 31.2 to 500 µg/mL (≈ 83.9 to 1340 µM) | MIC [17]: 31.2 to 500 µg/mL (≈ 83.9 to 1340 µM) | MIC [18]: 31.2 to 500 µg/mL (≈ 83.9 to 1340 µM) | MIC [8]: 31.2 to 500 µg/mL (≈ 83.9 to 1340 µM) | MIC [9]: 31.2 to 500 µg/mL (≈ 83.9 to 1340 µM) | MIC [19]: 31.2 to 500 µg/mL (≈ 83.9 to 1340 µM)
Compound: Cc1ccc(/C=C2\SC(=O)N(CCn3c([N+](=O)[O-])cnc3C)C2=O)cc1
